In brackets after ≈: the same amount, converted by molar mass.
Legend:
Assay type in all cases: cell-based
Pen. italicum MF2819 = experiment: MIC, inhibitor dilution assay in microtiter format, Pen. italicum MF2819; settings: Penicillium italicum; Pen. italicum MF2819, 42 hours, 28° C.; read-out: Minimum Inhibitory Concentration
Protocol: (§1) The compounds are particularly active towards filamentous fungi and yeasts including Candida albicans and Crypt neoformans. The sensitivity of filamentous fungi and yeast was determined using inhibitor dilution assays in microtiter format. The compounds were dissolved in DMSO at 2 mg/ml and serially diluted in 0.1M phosphate buffer, pH 7.0 in the microtiter dish from 100 to 0.006 μg/ml. A standardized spore suspension for testing the filamentous fungi was prepared by inoculating Antibiotic Medium #3 containing 1.5% agar with spores such that 1.5×10^3 colony forming units were added per well. The microtiter wells were filled with 50 μl of buffer containing compound and 50 μl of inoculated medium. The sensitivity of yeasts was determined by inoculating yeast nitrogen base containing 1% dextrose (YNB/G) with aliquots of an overnight yeast culture grown in yeast morphology (YM) media at 35° C. and diluting in YNB/G to yield a final concentration of 1.5-7.5×10^3 colony forming units/well. One hundred fifty μl of inoculated media was added per well. To test the sensitivity of yeast, compound was solubilized in 10 percent aqueous DMSO at 2.56 mg/ml. The compound was diluted serially in YNB/G from 128 to 0.06 μg/ml. The wells were filled with 150 μl of drug containing media. […]

T. Mentagrophytes MF4864 = experiment: MIC, inhibitor dilution assay in microtiter format, T. Mentagrophytes MF4864; settings: Trichophyton mentagrophytes; T. Mentagrophytes MF4864, 42 hours, 28° C.; read-out: Minimum Inhibitory Concentration
Protocol: as §1

A. flavus MF383 = experiment: MIC, inhibitor dilution assay in microtiter format, A. flavus MF383; settings: Aspergillus flavus; A. flavus MF383, 42 hours, 28° C.; read-out: Minimum Inhibitory Concentration
Protocol: as §1

C. albicans MY1055 = experiment: MIC and MFC, inhibitor dilution assay in microtiter format, C. albicans MY1055; settings: Candida albicans; for MIC: C. albicans MY1055, 24 hours, 28° C., read-out: Minimum Inhibitory Concentration; for MFC: C. albicans MY1055, no growth or no more than three colonies, read-out: Minimum Fungicidal Concentration
Protocol: (§2) The compounds are particularly active towards filamentous fungi and yeasts including Candida albicans and Crypt neoformans. The sensitivity of filamentous fungi and yeast was determined using inhibitor dilution assays in microtiter format. The compounds were dissolved in DMSO at 2 mg/ml and serially diluted in 0.1M phosphate buffer, pH 7.0 in the microtiter dish from 100 to 0.006 μg/ml. A standardized spore suspension for testing the filamentous fungi was prepared by inoculating Antibiotic Medium #3 containing 1.5% agar with spores such that 1.5×10^3 colony forming units were added per well. The microtiter wells were filled with 50 μl of buffer containing compound and 50 μl of inoculated medium. The sensitivity of yeasts was determined by inoculating yeast nitrogen base containing 1% dextrose (YNB/G) with aliquots of an overnight yeast culture grown in yeast morphology (YM) media at 35° C. and diluting in YNB/G to yield a final concentration of 1.5-7.5×10^3 colony forming units/well. One hundred fifty μl of inoculated media was added per well. To test the sensitivity of yeast, compound was solubilized in 10 percent aqueous DMSO at 2.56 mg/ml. The compound was diluted serially in YNB/G from 128 to 0.06 μg/ml. The wells were filled with 150 μl of drug containing media. The minimum inhibitory concentration (MIC) is defined as the lowest concentration to prevent visible growth after an incubation for 42 hours, 28° C. for the filamentous fungi and 24 hours, 28° C. for the yeasts. […] Representative of the antifungal activity are the minimum inhibitory concentration and minimum fungicidal concentration data shown below: […]

Crypt. neoformans MY1051 = experiment: MIC and MFC, inhibitor dilution assay in microtiter format, Crypt. neoformans MY1051; settings: Cryptococcus neoformans; for MFC: Crypt neoformans MY1051, no growth or no more than three colonies, read-out: Minimum Fungicidal Concentration; for MIC: Crypt. neoformans MY1051, 24 hours, 28° C., read-out: Minimum Inhibitory Concentration
Protocol: as §2

A. fumigatus MF4839 = experiment: MIC, inhibitor dilution assay in microtiter format, A. fumigatus MF4839; settings: Aspergillus fumigatus; A. fumigatus MF4839, 42 hours, 28° C.; read-out: Minimum Inhibitory Concentration
Protocol: as §1

C. parapsilosis MY1010 = experiment: MIC and MFC, inhibitor dilution assay in microtiter format, C. parapsilosis MY1010; settings: Lodderomyces parapsilosis; for MIC: C. parapsilosis MY1010, 24 hours, 28° C., read-out: Minimum Inhibitory Concentration; for MFC: C. parapsilosis MY1010, no growth or no more than three colonies, read-out: Minimum Fungicidal Concentration
Protocol: as §2

Fus. oxysporum MF4014 = experiment: MIC, inhibitor dilution assay in microtiter format, Fus. oxysporum MF4014; settings: Fusarium oxysporum; Fus. oxysporum MF4014, 42 hours, 28° C.; read-out: Minimum Inhibitory Concentration
Protocol: as §1

A. niger MF442 = experiment: MIC, inhibitor dilution assay in microtiter format, A. niger MF442; settings: Aspergillus niger; A. niger MF442, 42 hours, 28° C.; read-out: Minimum Inhibitory Concentration
Protocol: as §1

C. tropicalis MY1012 = experiment: MIC and MFC, inhibitor dilution assay in microtiter format, C. tropicalis MY1012; settings: Candida tropicalis; for MIC: C. tropicalis MY1012, 24 hours, 28° C., read-out: Minimum Inhibitory Concentration; for MFC: C. tropicalis MY1012, no growth or no more than three colonies, read-out: Minimum Fungicidal Concentration
Protocol: as §2

Coch. miyabeanus MF4626 = experiment: MIC, inhibitor dilution assay in microtiter format, Coch. miyabeanus MF4626; settings: Bipolaris oryzae, MF4626, 42 h, read-out: Minimum Inhibitory Concentration
Protocol: as §1

| Compound | MIC (Pen. italicum MF2819) | MIC (T. Mentagrophytes MF4864) | MIC (A. flavus MF383) | MIC (C. albicans MY1055) | MFC (C. albicans MY1055) | MFC (Crypt. neoformans MY1051) | MIC (Crypt. neoformans MY1051) | MIC (A. fumigatus MF4839) | MIC (C. parapsilosis MY1010) | MFC (C. parapsilosis MY1010) | MIC (Fus. oxysporum MF4014) | MIC (A. niger MF442) | MIC (C. tropicalis MY1012) | MFC (C. tropicalis MY1012) | MIC (Coch. miyabeanus MF4626) |
| --- | --- | --- | --- | --- | --- | --- | --- | --- | --- | --- | --- | --- | --- | --- | --- |
| C=C(CCC12OC(C(=O)O)C(O)(C(=O)O)C(C(=O)O)(O1)C(OC(=O)C=CC(C)CC(C)CC)C2O)C(OC(C)=O)C(C)Cc1ccccc1 (centres unmarked) [Compound A] | 6.2 µg/mL (≈ 8.98 µM) | 4 µg/mL (≈ 5.79 µM) | 6.2 µg/mL (≈ 8.98 µM) | 8 µg/mL (≈ 11.6 µM) | 4 µg/mL (≈ 5.79 µM) | 0.5 µg/mL (≈ 0.724 µM) | 1 µg/mL (≈ 1.45 µM) | 6.2 µg/mL (≈ 8.98 µM) | 8 µg/mL (≈ 11.6 µM) | 2 µg/mL (≈ 2.9 µM) | > 100 µg/mL | 25 µg/mL (≈ 36.2 µM) | 4 µg/mL (≈ 5.79 µM) | 2 µg/mL (≈ 2.9 µM) | 1.6 µg/mL (≈ 2.32 µM) |
| C=C(CCC12OC(C(=O)OC)C(O)(C(=O)OC)C(C(=O)OC)(O1)C(OC(=O)C=CC(C)CC(C)CC)C2O)C(OC(C)=O)C(C)Cc1ccccc1 (centres unmarked) [Compound B] |  | > 128 µg/mL | > 128 µg/mL | > 128 µg/mL | > 128 µg/mL | > 128 µg/mL | > 128 µg/mL | > 128 µg/mL | > 128 µg/mL | > 128 µg/mL |  |  | > 128 µg/mL | > 128 µg/mL |  |
